The record followed here is PubChem BioAssay AID179 (DTP/NCI, 2004).

The test relates to CEM cells HIV-1 protection, formazan growth assay. Put plainly: NCI AIDS Antiviral Assay. The note with it: for IC50: measured here: growth of uninfected CEM cells. A digest of the protocol: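 Five concentrations of each compound were applied to infected and uninfected human CEM cells. Protection from HIV-1 was judged from growth measured with a soluble formazan assay.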

Structures are written as SMILES. The source made the active and inactive calls.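 Rule for the calls: active = compounds giving half or more protection of infected cells from virus-caused growth loss, again on retest; inactive = the rest.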

For `CCOc1ccc(N=Nc2ccc3oc(=O)c(C(=O)Nc4ccc(OC)cc4)cc3c2)cc1`, the EC50 was over 8.51 µM and the half-maximal inhibitory concentration (IC50) was over 8.51 µM.

`O=C(Nc1cc2cc([N+](=O)[O-])ccc2oc1=O)c1cccs1`: the EC50 is over 61.7 µM and the IC50 was over 61.7 µM. As to `CC(=O)/C(=C/n1c(=S)sc2ccccc21)C(=O)Nc1ccccc1`, the EC50 is over 200 µM and the IC50 turned out to be 138 µM. On to `Nc1nc2c(ncn2C2C=CC(COS(N)(=O)=O)C2)c(=O)[nH]1` (stereo not drawn), for which the EC50 was over 200 µM and the IC50 is over 200 µM.

For `O=c1[nH]c2nn(-c3ccccc3)cc2c(=O)n1O`, the EC50 is over 200 µM and the 50% inhibitory concentration (IC50) stood at 3.31 µM. For `CC(C)(C)C(=O)/C=C/c1ccc([N+](=O)[O-])cc1`, the result was inactive and the IC50 is 10.2 µM. As for `CN1C(=O)C(C)(C)C(=O)c2ccccc21`, the EC50 is over 200 µM and the 50% inhibitory concentration (IC50) was over 200 µM. Turning to `COc1ccc2c(c1)CCN=C2Cc1ccccc1CCCl`, the EC50 was over 200 µM and the IC50 came to 26.3 µM. Taken in the same sequence, the figures for `CNC(=O)N1CN(c2ccccc2)C2(CCN(CCCC(=O)c3ccc(F)cc3)CC2)C1=O` were over 200 µM and 10.5 µM. As to `CCOC(=O)COc1cccc2occc(=O)c12`, the result was inactive. Regarding `CCCCN(CCCC)CC(C(=O)Nc1ccc([N+](=O)[O-])cc1[N+](=O)[O-])/C(C)=N\NC(=O)C[N+](C)(C)C` (stereo not drawn), the EC50 was over 46.8 µM and the IC50 is over 46.8 µM. Compound `Nc1cc(N)c(N=Nc2ccc(/C=C\c3ccc(N=Nc4c(N)cc(N)cc4C(=O)O)cc3S(=O)(=O)O)c(S(=O)(=O)O)c2)c(C(=O)O)c1.[Zn+2]` displayed a 50% effective concentration (EC50) of over 30.2 µM and a half-maximal inhibitory concentration (IC50) of 23.4 µM. As for `CC(=O)O[C@H]1CCC(C)=CCC[C@@]2(C)C(CC[C@@H]2[C@@H](C)/C=C/C(C)C)c2ccc(cc2C(=O)O)C1` (stereo partly drawn), the result was inactive. Take `COc1cc(C2c3cc4c(cc3OC(N3CCCC3)C2C)OCO4)cc(OC)c1O` (stereo not drawn): the EC50 is over 200 µM and the IC50 worked out at 6.03 µM.

Take `OCC1OC(n2nc(-c3ccccc3)nc2-c2cnccn2)C(O)C(O)C1O` (stereo not drawn): the EC50 is over 200 µM and the IC50 is over 200 µM.

With `Cn1cnc([N+](=O)[O-])c1Sc1ccccc1N`, the EC50 was over 525 µM and the IC50 was found to be 61.7 µM. With `CC1(C)CCCCCCC2CC2CCCCCC(C)(C)C1=O` (stereo not drawn), the EC50 is over 200 µM and the concentration for half-maximal inhibition (IC50) was found to be 105 µM. For the compound `CCOC(=O)c1ccc(N=Nc2ccc(N(CCC#N)CCC#N)cc2C)cc1`, the EC50 was over 9.77 µM and the IC50 was over 9.77 µM. For `Cn1nc(-c2ccc(Cl)c(Cl)c2)nc2c(=O)n(C)c(=O)nc1-2`, the EC50 was over 200 µM and the 50% inhibitory concentration (IC50) was found to be 3.8 µM. Regarding `C=CCn1c(N)c(C#N)c(C#N)c1-c1ccccc1`, the EC50 was over 200 µM and the 50% inhibitory concentration (IC50) was over 200 µM. On to `CCOP(=O)(CP(=O)(OCC)OCC)OCC.[Cl][Sn]([Cl])([c]1ccccc1)[c]1ccccc1`, for which the EC50 is over 11.5 µM and the 50% inhibitory concentration (IC50) amounted to 0.603 µM.

In the case of `COC1C2c3ccccc3C(C#N)(Cc3ccc4c(c32)OCO4)N1C(=O)c1ccccc1` (stereo not drawn), the result was inactive. `Nc1nc(SCc2ccccn2)c2ncn(C3CCCC3)c2n1`: the EC50 is over 200 µM and the 50% inhibitory concentration (IC50) came to 110 µM. As for `CCN(CC)CCCOP(=O)(OCCCN(CC)CC)OCCCN(CC)CC`, the EC50 was 20 µM and the half-maximal inhibitory concentration (IC50) is over 200 µM. On to `COc1cc(C2SC(N)=Nc3c2c(C)nn3C(=O)c2ccccc2O)ccc1O` (stereo not drawn), for which the EC50 was over 2 µM and the IC50 was 0.0977 µM. With `O=C(CC(=O)N(C(=O)/C=C\c1ccccc1)c1ccc(Cl)cc1)N1N=C(c2ccccc2)C(N=Nc2cccc([N+](=O)[O-])c2)C1=O` (stereo not drawn), the EC50 is over 200 µM and the IC50 came out at 3.55 µM.

On to `COc1ccc(C2C3=C(N=C4SC(C(C)=O)=C(C)N42)c2ccccc2CC3)cc1` (stereo not drawn), for which the EC50 was over 200 µM and the half-maximal inhibitory concentration (IC50) was determined as 17.4 µM. `CCOC(=O)N/N=C(/OCC)c1ccccc1`: the EC50 is over 200 µM and the IC50 is over 200 µM.

For `COc1ccc2nc3ccccc3c(NCCCCCCN(CCCl)CCCl)c2c1`, the EC50 was over 0.2 µM and the IC50 worked out at 0.162 µM. `CCCNC(=S)NN1C2CSC1CS2`: the EC50 is over 178 µM and the IC50 is over 178 µM. In the case of `N#C/C(=C\c1cccs1)c1ccccc1`, the EC50 was over 200 µM and the IC50 was determined as 117 µM. Take `Cc1cccc([B-]23OCC[N+]2(CNC(=O)C2=C(O)C4(O)C(=O)C5=C(O)c6c(O)cccc6C(C)(O)C5CC4C(N(C)C)C2=O)CCO3)c1` (stereo not drawn): the EC50 is over 38.9 µM and the 50% inhibitory concentration (IC50) was over 38.9 µM.

In the case of `[CH3][Sn]([CH3])([CH3])[c]1cccc2ccccc12`, the outcome was inactive.

For the compound `c1ccc2c(c1)cc1c3[nH]c4ccccc4c3ccn21`, the EC50 was over 200 µM and the half-inhibitory concentration (IC50) was 6.76 µM.

Regarding `C=C1C2CC[C@H]3C45CO[C@@](O)(C(O)[C@@H]4C(C)(C)C=CC5=O)C3(C2)C1OC(C)=O` (stereo partly drawn), the EC50 is over 339 µM and the half-maximal inhibitory concentration (IC50) came out at 23.4 µM. Regarding `Cc1sc2ccc3ccccc3c2[n+]1C`, the EC50 is over 200 µM and the IC50 worked out at 45.7 µM. Turning to `Cc1ccnc(NC(=O)Nc2cc(F)ccc2F)c1`, the EC50 was over 200 µM and the 50% inhibitory concentration (IC50) is over 200 µM.

Take `CCOC(=O)C1CCCc2sc(N)c(C#N)c21` (stereo not drawn): the EC50 is over 200 µM and the IC50 is over 200 µM. As to `COCCOc1cc(C)cc(/C=C(C)/C=C/C2=C(C)CCCC2(C)C)n1`, the result was inactive.

Consider `CN(NC(=O)/C(=C/C=C/c1ccccc1)NC(=O)c1ccccc1)C1=C(Cl)C(=O)[N+](c2ccccc2)=CC1`, for which the EC50 is over 200 µM and the IC50 was 35.5 µM. Taken in the same sequence, the figures for `COC(=O)C1(Cc2ccccc2)Cc2c(C)ccc(C)c2C1=O` (stereo not drawn) were over 200 µM and over 200 µM. Taken in the same sequence, the figures for `O/N=C1\CSc2ccccc2C1` were over 200 µM and over 200 µM. `COc1ccc(/C=c2\[nH]c3nc(=O)c(N4CCCCC4)c(N)n3c2=O)cc1`: the EC50 is over 200 µM and the half-inhibitory concentration (IC50) worked out at 120 µM.

For `O=C(NC(CO)CO)c1ccc2cc(C(=O)N3CC(CCl)c4ccc([N+](=O)[O-])cc43)[nH]c2c1` (stereo not drawn), the EC50 is over 200 µM and the half-inhibitory concentration (IC50) is 53.7 µM. As for `OCC1OC(Oc2cc(O)cc(CCc3ccc(O)c(O)c3)c2)C(O)C(O)C1O` (stereo not drawn), the EC50 is over 617 µM and the half-maximal inhibitory concentration (IC50) amounted to 41.7 µM. Taken in the same sequence, the figures for `CCc1cccc(C(C)C)c1NC(=O)C(=O)Nn1c(=S)[nH]c2ccccc2c1=O` were over 123 µM and over 123 µM.

With `OCC1(CNc2cc(Cl)ncn2)CCC1`, the EC50 is over 200 µM and the IC50 was over 200 µM. As to `Cc1cc([N+](=O)[O-])ccc1NC(=O)C(=O)C(C(=O)c1ccccc1-c1ccccc1)C1OC(=O)c2ccccc21` (stereo not drawn), the EC50 was over 178 µM and the IC50 stood at 28.2 µM. In the same order, the values of `C/C(CCN(C)C)=N\OC(=O)c1ccccc1` are over 200 µM and over 200 µM. Regarding `C/C(=C1/N=C(c2cc([N+](=O)[O-])ccc2Cl)N(c2ccc(Br)cc2)C1=O)c1ccc(N(CCC#N)CCC#N)cc1C`, the EC50 was over 11.5 µM and the half-inhibitory concentration (IC50) was over 11.5 µM. `NC(CCCCNCc1ccccc1O)C(=O)O` (stereo not drawn): the EC50 was over 178 µM and the 50% inhibitory concentration (IC50) was over 178 µM. Regarding `Nc1cccc(S(=O)(=O)N(CC(=O)O)c2ccccc2)c1`, the outcome was inactive. As for `CC1=CCC2(C#N)CCC1C2=O` (stereo not drawn), the EC50 was over 251 µM and the half-inhibitory concentration (IC50) is over 251 µM. As for `CC(=O)Oc1c2c(cc3c1C(=O)NC1C3=CC(O)[C@@H](OC(C)=O)[C@H]1OC(C)=O)OCO2` (stereo partly drawn), the result was inactive.

As for `O=C(N=Nc1ccc(Cl)cc1Cl)NNc1ccc(Cl)cc1Cl`, the EC50 was over 200 µM and the IC50 was 57.5 µM. As for `C[CH2][Ge]1([CH2]C)[CH2]CC2(CCN(CCCN(C)C)C2)C[CH2]1`, the EC50 was over 251 µM and the IC50 came to 1.38 µM. Take `C/C(CCn1[nH]c(=O)ccc1=O)=N\NC(=O)C(=O)NN`: the EC50 was over 1.95 µM and the IC50 is over 1.95 µM. `COC(=O)C(=O)C(C(=O)C(=O)Nc1cc([N+](=O)[O-])ccc1C#N)c1nc2ccccc2[nH]c1=O` (stereo not drawn): the outcome was inactive.

As to `c1ccc(-c2sc(-c3ccccc3)c3c2C2CCC3C2)cc1`, the EC50 was over 200 µM and the IC50 was 36.3 µM. As for `O=C(NC1CC(NC(=O)OCc2ccccc2)C2c3ccccc3C12)OCc1ccccc1` (stereo not drawn), the outcome was inactive. Turning to `Cc1ccc(-c2n[nH]c(=O)n2N2C(=O)C=CC2=O)cc1`, the half-maximal effective concentration (EC50) is 49 µM and the IC50 worked out at 501 µM. For `O=C1O[C@H]2[C@@H](I)[C@H]3C[C@H]2[C@H]1[C@H]3c1ccccc1`, the EC50 is over 200 µM and the half-inhibitory concentration (IC50) is over 200 µM. Consider `O=S(Cl)C(Cl)=C(Cl)Cl` (stereo not drawn), for which the EC50 is over 200 µM and the IC50 turned out to be 40.7 µM. In the case of `CCOC(=O)Nc1ccc2nc(N3CCCCCC3)sc2c1`, the EC50 was over 58.9 µM and the 50% inhibitory concentration (IC50) turned out to be 1.02 µM.

Regarding `O=C(O)c1cscc1C(=O)O`, the EC50 is over 200 µM and the IC50 was over 200 µM. Turning to `CC(=O)NNc1nc(C)c(C(=O)NNC(=O)C(=O)Nc2ccc([N+](=O)[O-])cc2C#N)s1`, the EC50 was over 407 µM and the concentration for half-maximal inhibition (IC50) came out at 331 µM. `O=C1CN(c2cccc(C(F)(F)F)c2)C(=O)CN1CCN1CC(=O)N(c2cccc(C(F)(F)F)c2)CC1=O`: the EC50 is over 200 µM and the 50% inhibitory concentration (IC50) was over 200 µM. For the compound `C[C@H](NC1=CC(=O)C(N[C@@H](C)[C@H](O)c2ccccc2)=CC1=O)[C@H](O)c1ccccc1`, the EC50 is over 200 µM and the half-maximal inhibitory concentration (IC50) came to 141 µM. As for `C=C(C)CNC1=C(C)C(=O)C2=C(C1=O)[C@H](COC(N)=O)[C@]1(OC)[C@@H]3N[C@@H]3CN21`, the EC50 is over 200 µM and the concentration for half-maximal inhibition (IC50) was found to be 14.5 µM. In the same order, the values of `CC/C(CC(=O)CCC(=O)Nc1ccc(C)c(C)c1)=N\NC(=O)c1cc2ccccc2cc1O` are over 15.8 µM and 10 µM. As to `COc1ccc(NC(=O)/C(=N/NC(N)=S)C2C(=O)NC(=S)NC2=O)c(OC)c1`, the EC50 was over 589 µM and the IC50 is over 589 µM.

One may read the EC50 as the concentration needed to bring the measured effect to its halfway point. A word on the IC50: it is the concentration that gives 50% inhibition. A lower IC50 goes with greater potency in that assay.
